Data from patent US9920069B2, “Compounds for treatment of fluoroquinolone-resistant bacteria” (The Board of Trustees of the University of Illinois, priority 2014, dated 2018).

Key:
[1] = physchem; settings: pH 7.4 PBS; three replicates ± SEM
Experimental: Enough PBS was added to make a 1 mg/mL solution. Compounds were then assessed by LC-MS and compared to a calibration curve to determine the solubility. […] Data shown is from three independent replicates±SEM. […] Between DMSO additions, the vial was vortexed and sonicated.
The compound was vortexed for ˜30 seconds before being placed into a bath sonicator (Cole Parmer, ultrasonic cleaner) for 1 h. […] The tubes were vortexed again for 30 s before being centrifuged at maximum speed (13,000×g) for 10 minutes. The supernatant was then filtered through a 0.22 μm syringe filter (Millipore Millex MP). […] Three independent replicates of each compound were performed. A calibration curve for each compound was generated from 1-400 μM by dissolving the compound in DMSO and making dilutions of the stock in DMSO. […] The concentration of the samples was calculated based on the calibration curves.

[2] = test system: S. aureus 29213 (WT GyrA and WT ParC); assay: microbe, parasite or virus in culture; assay type: cell-based; settings: Staphylococcus aureus; WT GyrA and WT ParC; read-out: MIC against S. aureus 29213
Experimental: (§1) Susceptibility testing was performed in triplicate using the microdilution broth method as outlined by the Clinical and Laboratory Standards Institute CLSI^52. MH broth was used.

[3] = test system: A. baumannii ATCC 19606; assay: microbe, parasite or virus in culture; assay type: cell-based; settings: Acinetobacter baumannii, ATCC19606, gyrA none, parC none
Experimental: (§2) E. coli MG1655 and the ΔAcrB strain were obtained from Prof. Cari Vanderpool at UIUC.
as §1

[4] = test system: E. coli ATCC 25922; assay: microbe, parasite or virus in culture; assay type: cell-based; settings: Escherichia coli, ATCC25922, gyrA none, parC none
Experimental: as §2, §1

[5] = test system: P. aeruginosa PAO1; assay: microbe, parasite or virus in culture; assay type: cell-based; settings: Pseudomonas aeruginosa, gyrA none, parC none
Experimental: as §2, §1

[6] = test system: PA1586; assay: MIC, microdilution broth; assay type: cell-based, P. aeruginosa; settings: Pseudomonas aeruginosa
Experimental: as §2, §1

[7] = test system: A. baumannii KB304; assay: MIC, microdilution broth; assay type: cell-based; settings: Acinetobacter baumannii
Experimental: as §2, §1

[8] = test system: A. baumannii KB349; assay: MIC, microdilution broth; assay type: cell-based; settings: Acinetobacter baumannii
Experimental: as §2, §1

[9] = test system: MRSA clinical isolate SAU.3021; assay: MIC, microdilution broth; assay type: cell-based, S. aureus; settings: Staphylococcus aureus, MRSA, read-out: MIC
Experimental: as §1

[10] = test system: MRSA clinical isolate SAU.3026; assay: MIC, microdilution broth; assay type: cell-based, S. aureus; settings: Staphylococcus aureus, MRSA, read-out: MIC
Experimental: as §1

[11] = test system: MRSA clinical isolate SAU.419; assay: MIC, microdilution broth; assay type: cell-based, S. aureus; settings: Staphylococcus aureus, MRSA, read-out: MIC
Experimental: as §1

[12] = test system: MRSA clinical isolate SAU.555; assay: MIC, microdilution broth; assay type: cell-based, S. aureus; settings: Staphylococcus aureus
Experimental: as §1

[13] = test system: MRSA clinical isolate SAU.489; assay: microbe, parasite or virus in culture; assay type: cell-based, S. aureus; settings: Staphylococcus aureus, read-out: MIC
Experimental: as §1

[14] = test system: MRSA clinical isolate SAU.491; assay: microbe, parasite or virus in culture; assay type: cell-based, S. aureus; settings: Staphylococcus aureus, read-out: MIC
Experimental: as §1

[15] = test system: MRSA clinical isolate SAU.493; assay: microbe, parasite or virus in culture; assay type: cell-based, S. aureus; settings: Staphylococcus aureus, read-out: MIC
Experimental: as §1

[16] = test system: MRSA clinical isolate SAU.494; assay: microbe, parasite or virus in culture; assay type: cell-based, S. aureus; settings: Staphylococcus aureus, read-out: MIC
Experimental: as §1

[17] = test system: MRSA clinical isolate SAU.495; assay: microbe, parasite or virus in culture; assay type: cell-based, S. aureus; settings: Staphylococcus aureus, read-out: MIC
Experimental: as §1

[18] = test system: MRSA clinical isolate SAU.496; assay: microbe, parasite or virus in culture; assay type: cell-based, S. aureus; settings: Staphylococcus aureus, read-out: MIC
Experimental: as §1

[19] = test system: MRSA clinical isolate SAU.708; assay: microbe, parasite or virus in culture; assay type: cell-based, S. aureus; settings: Staphylococcus aureus, read-out: MIC
Experimental: as §1

[20] = test system: MRSA clinical isolate SAU.709; assay: microbe, parasite or virus in culture; assay type: cell-based, S. aureus; settings: Staphylococcus aureus, read-out: MIC
Experimental: as §1

[21] = test system: MRSA clinical isolate SAU.710; assay: microbe, parasite or virus in culture; assay type: cell-based, S. aureus; settings: Staphylococcus aureus, read-out: MIC
Experimental: as §1

[22] = test system: Enterococcus ATCC 29212; assay: organism not typed; assay type: cell-based, E. faecalis; settings: ATCC 29212, E. faecalis; gyrA WT, parC WT; read-out: MIC
[23] = test system: Enterococcus ATCC 19433; assay: organism not typed; assay type: cell-based, E. faecalis; settings: ATCC 19433, E. faecalis; gyrA WT, parC WT; read-out: MIC
[24] = test system: VRE clinical isolate C21190; assay: organism not typed; assay type: cell-based, E. faecium
Experimental: (§3) QRDR mutations were determined as described in the text using primers (primer sequences can be found in Table 7).
as §1

[25] = test system: VRE clinical isolate C27282; assay: organism not typed; assay type: cell-based, E. faecium
Experimental: as §3, §1

[26] = test system: VRE clinical isolate S226; assay: organism not typed; assay type: cell-based, E. faecium
Experimental: as §3, §1

[27] = test system: VRE clinical isolate S235; assay: organism not typed; assay type: cell-based, E. faecium
Experimental: as §3, §1

[28] = test system: VRE clinical isolate S34; assay: organism not typed; assay type: cell-based, E. faecium
Experimental: as §3, §1

[29] = test system: VRE clinical isolate S51; assay: organism not typed; assay type: cell-based, E. faecium
Experimental: as §3, §1

[30] = test system: VRE clinical isolate U275; assay: organism not typed; assay type: cell-based, E. faecium
Experimental: as §3, §1

[31] = test system: VRE clinical isolate U464; assay: organism not typed; assay type: cell-based, E. faecium
Experimental: as §3, §1

[32] = test system: VRE clinical isolate U503; assay: organism not typed; assay type: cell-based, E. faecium
Experimental: as §3, §1

[33] = test system: VRE clinical isolate U563; assay: organism not typed; assay type: cell-based, E. faecium
Experimental: as §3, §1

[34] = test system: VRE clinical isolate U63; assay: organism not typed; assay type: cell-based, E. faecium
Experimental: as §3, §1

[35] = test system: VRE clinical isolate S234; assay: organism not typed; assay type: cell-based, E. faecalis; settings: read-out: MIC
[36] = test system: VRE clinical isolate S557; assay: organism not typed; assay type: cell-based, E. faecium; settings: read-out: MIC
[37] = test system: VRE clinical isolate D1; assay: organism not typed; assay type: cell-based, E. faecium; settings: read-out: MIC
[38] = test system: VRE clinical isolate C28036; assay: microbe, parasite or virus in culture; assay type: cell-based, Ent. Spp.; settings: Enterococcus
Experimental: as §3, §1

[39] = test system: VRE clinical isolate S206; assay: organism not typed; assay type: cell-based, E. faecalis
Experimental: as §3, §1

[40] = test system: MRSA clinical isolates; assay: Panel of MRSA clinical isolates (FIG. 2A); assay type: cell-based, S. aureus; settings: n=21, in words
[41] = test system: VRE clinical isolates; assay: Panel of VRE clinical isolates (FIG. 2B); assay type: cell-based, Enterococcus; settings: n=22, in words
[42] = physchem; settings: organic solvent or mixture, thermodynamic from solid

CCCn1c(=O)cc(C)c2cc3c(C)cc(=O)n4c3c(c21)OC4 [DNM-8]
1 µg/mL: MIC [19] | MIC [26] | MIC [27] | MIC [29] | MIC [38]
4 µg/mL: MIC [30] | MIC [32] | MIC [33] | MIC [34] | MIC [39]
0.25 µg/mL: MIC [10] | MIC [11] | MIC [13] | MIC [15] | MIC [16] | MIC [17] | MIC [18] | MIC [20]
2 µg/mL: MIC [28] | MIC [31]
68 μM: Solubility in pH 7.4 PBS [1]
> 32 µg/mL: MIC [3] | MIC [4] | MIC [5] | MIC [6] | MIC [7] | MIC [8]
0.5 µg/mL: MIC [12] | MIC [14] | MIC [35] | MIC [36] | MIC [37]
11.3 mM: solubility [42]
sensitive: sensitivity of MRSA clinical isolates [40] | sensitivity of VRE clinical isolates [41]
8 µg/mL: MIC [22] | MIC [24] | MIC [25]
0.125 µg/mL: MIC [9] | MIC [21]
16 µg/mL: MIC [2] | MIC [23]
